Results on one molecule are retold here after ChEMBL document CHEMBL1158510, “Hybrid anticancer agents: isothiocyanate-progesterone conjugates as chemotherapeutic agents and insights into their cytotoxicities” (Bioorg Med Chem Lett, 2010).

What all share (format): functional, cell-based
The test system of one assay is MDA-MB-231. As to the kind of experiment: Cytotoxicity against human MDA-MB-231 cells after 72 hrs by MTT assay. Particulars: MDA-MB-231, 72 h.
In another assay the test system is BT-20. Description: Cytotoxicity against human BT20 cells after 72 hrs by MTT assay. Particulars: BT-20, 72 h. Background: Formazan colour is commonly taken as a measure of viable cells.
The test system of another assay is MCF7. Description: Cytotoxicity against human MCF7 cells after 72 hrs by MTT assay. The following applies: MCF7, 72 h.
Another assay concerns PC-3. As to the kind of experiment: Cytotoxicity against human PC3 cells after 72 hrs by MTT assay. Particulars: PC-3, 72 h.

Structures are written as SMILES. pIC50: −log10 of the molar value.

`CC(=O)[C@H]1CC[C@H]2[C@@H]3CCC4=C/C(=N/NC(N)=S)CC[C@]4(C)[C@H]3CC[C@]12C`: the pIC50 (commonly the negative decadic logarithm of the IC50, by convention in mol/L) in the assay on MDA-MB-231 is 4.60; with BT-20, 5.28; in the assay with MCF7, 4.70; in the assay on PC-3, 4.80.
